Each block holds one molecule with its values, some of them ahead of it.
Assays:
Akt = Akt phosphorylation in naive HPASMC treated with media from apoptotic cells (Western blot); type: cell-based, human; conditions: apoptotic conditioned media, 24 h, L-690,330 at 500 μM, FIG. 9C
Procedure: Western blot and immunoprecipitation: For an analysis of the total lung proteins, lung tissues were lysed. According to the manufacturer's protocol, the membrane proteins were isolated using Mem-PER Plus Membrane Protein Extraction Kit (ThermoFisher Scientific, Rockford, IL). Briefly, 20-40 mg of lung tissue was quickly washed in Cell WashSolution to remove any blood components, transferred to permeabilization buffer mixed with protease and phosphatase inhibitor cocktails, homogenized using Fisher Homogenizer 850 for 1 minute, and shaken in UltraCruz Shaker at 0° C. for 10 minutes. The homogenate was centrifuged at 16,000 g for 15 minutes to pellet permeabilized cells. The supernatant containing cytosolic proteins was carefully transferred to a separate tube. […] The reactive bands were visualized using a chemiluminescent protocol, recorded with the ChemiDoc MP Imaging System (Bio-RadLaboratories, Hercules, CA), and analyzed using Image Laboratory software. […]
Cell culture: Human pulmonary artery endothelial cells (HPAEC; cat. no. 3100, lot no. 3904) and human pulmonary artery smooth muscle cells (HPASMC; cat. no. 3110, lot no. 0294) were purchased from ScienCell (Carlsbad, CA), one donor for each cell type. […] The level of apoptosis was quantified using Apoptosis and Necrosis Quantification Kit (Biotum, Fremont, CA) according to the manufacturer's protocol. […]

SU/Hx rats = test: SU/Hx rat model of pulmonary arterial hypertension: RV pressure and RV hypertrophy; type: in vivo; conditions: 5 μg/kg i.p. daily for 1 wk
Procedure: (§1) Rat models of pulmonary hypertension: Thirty-two Sprague-Dawley female rats (200-250 g) were purchased from Charles River (Wilmington, MA). Animals were kept in a 12-h:12-h light-dark cycle and received standard rodent food and water ad libitum. All experimental procedures were approved by the University of Arizona's Institutional Animal Care and Use Committee. To induce PAH, rats received either the vehicle or a single dose of the VEGF receptor 2 antagonist SU5416, 50 mg/kg sc, as previously described. On the day of injection, the PAH rats were placed in a hypoxic chamber (BioSpherix, Redfield, NJ), and the oxygen was maintained at the level of 10±0.5%. The O2 and CO2 concentrations were continuously monitored (PROOX 110 BioSpherix oxygen controller and LB-2 CO2 analyzer; Sensormedics).
The animals were analyzed after 1 or 2 weeks of exposure to hypoxia or after 5 weeks (i.e., 3 weeks of hypoxia and 2 weeks of normoxia). The control rats were kept under normoxic conditions for the duration of the study (5 weeks). At the end of each study period, animals were anesthetized ([…], 100 mg/kg ip) and instrumented for measurement of right ventricle (RV) hemodynamics. Briefly, a PE-240 polyethylene tube was inserted into the trachea to facilitate breathing. […]

RAGE/IMPA1 = molecular target: T1, RAGE/IMPA1 (Rattus norvegicus, UniProt P97697); test: RAGE/IMPA1 co-immunoprecipitation in lungs of SU/Hx rats after peptide injection; type: in vivo; conditions: 5 μg/kg i.p. daily for 1 wk, FIG. 11B
T1 construct: from tissue; host or cells: lung of Sprague-Dawley rats (SU5416/hypoxia PAH model)
T1 sequence (P97697 1-277): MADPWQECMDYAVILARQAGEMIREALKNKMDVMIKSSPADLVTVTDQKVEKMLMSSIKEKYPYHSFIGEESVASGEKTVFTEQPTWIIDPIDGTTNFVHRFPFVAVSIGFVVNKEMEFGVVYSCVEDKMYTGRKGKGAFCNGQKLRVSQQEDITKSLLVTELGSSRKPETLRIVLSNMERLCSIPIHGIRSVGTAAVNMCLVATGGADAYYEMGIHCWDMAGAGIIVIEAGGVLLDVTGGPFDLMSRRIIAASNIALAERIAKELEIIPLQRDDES
Procedure: as §1
For immunoprecipitation (IP), RAGE antibodies conjugated to agarose beads were used according to the manufacturer's (Santa Cruz Biotechnology) protocol. Lung tissue lysate (300 μg of total protein) was rotated at room temperature with 20 μl of bead solution for 2 hours. Beads were collected by brief centrifugation (30 seconds at 1,000 g), washed four times with lysis buffer and PBS, resuspended with 30 μl of 2× Laemmli sample buffer, and boiled for 5 minutes at 95° C. The supernatant collected by centrifugation was used for Western Blot analysis as described.

[1] = system: PAEC isolated from Control subjects; test: Growth of PAEC isolated from Control subjects (healthy cells); type: cell-based, human; conditions: 3.3 mg/ml, FIG. 11F
HeLa cells = test: Proliferation of HeLa cells (human cancer cells); type: cell-based; conditions: FIG. 11G
[2] = system: PAEC isolated from IPAH patients; test: Proliferation of PAEC isolated from IPAH patients; type: cell-based, human; conditions: 3.3 mg/ml, FIG. 11E
[3] = molecular target: T2, receptor for advanced glycation endproducts (RAGE), rat, endogenous in lung tissue (rat, UniProt Q63495 23-402); test: RAGE co-IP from PAH rat lung, mass spectrometry, immunoblot time course and PLA
T2 construct: Endogenous rat protein, pulled down from lung lysate with RAGE antibody on agarose beads or detected in situ by PLA; No construct limits apply; also called full-size RAGE
From the text: FIGS. 4A, 4B, and 4C show a receptor for advanced glycation endproducts (RAGE) interacting with inositol monophosphatase 1 (IMPA1) in pulmonary arterial hypertension (PAH). Mass spectrometry analysis of proteins co-immunoprecipitated (co-IP) with RAGE from lungs identified IMPA1 as a novel RAGE interacting partner. The RAGE-IMPA1 complex was discovered in both samples from PAH animals (week 5) but not in control (peptide probability […]; 4 peptides with P>89%). […] There was no interaction between RAGE and IMPA1 in controls from week 1 RAGE/IMPA1 were efficiently co-IP (n=4 for all groups). Results are expressed as box and whisker plots (boxes: 25th to 75th percentile of the data; whiskers: minimum to maximum; the line represents the median value). *P<0.05 vs. control. Statistical analysis was performed by Newman-Keuls multiple-comparisons test. […] Images are representative of 6 pulmonary arteries/at n=4 rats/group. Gray images were taken using light microscopy (×20) to visualize the tissue structure. The square represents the area of magnification (×100). The white marker corresponds to 25 μm. […] The dotted line is traced following the external lamina of the vessel. The arrowheads point to the endothelial cells with no PLA signal; white arrows point to the cells in the pulmonary artery media and adventitia cells with a bright PLA signal. IB, immunoblot. […]

T2 sequence (Q63495 23-402 limits assumed): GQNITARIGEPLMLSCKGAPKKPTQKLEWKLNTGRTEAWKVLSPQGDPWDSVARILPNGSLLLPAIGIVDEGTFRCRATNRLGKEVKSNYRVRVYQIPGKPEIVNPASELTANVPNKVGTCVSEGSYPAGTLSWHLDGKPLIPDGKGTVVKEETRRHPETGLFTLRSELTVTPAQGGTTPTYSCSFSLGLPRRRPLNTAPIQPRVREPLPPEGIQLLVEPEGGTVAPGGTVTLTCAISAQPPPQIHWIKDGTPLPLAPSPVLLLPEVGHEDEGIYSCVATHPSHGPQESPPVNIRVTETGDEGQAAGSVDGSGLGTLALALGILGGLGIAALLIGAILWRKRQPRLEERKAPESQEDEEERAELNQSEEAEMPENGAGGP

Molecule: CC(Oc1ccc(O)cc1)(P(=O)(O)O)P(=O)(O)O [L-690,330]
Akt phosphorylation (Akt): significantly attenuated

RAGE/IMPA1 co-IP (RAGE/IMPA1): inhibits RAGE/IMPA1 co-IP
Molecule: ILWQRRQRRG [SEQ ID NO: 1]
RVSP (right ventricle systolic pressure) (SU/Hx rats; FIG. 11C): reduces RVSP
RV hypertrophy (SU/Hx rats; FIG. 11D): reduces

Molecule: anti-RAGE/IMPA1 peptide: peptide designed based on the sequence of cytosolic tails of RAGE predicted to interact with IMPA1; probably SEQ ID NO: 1 (ILWQRRQRRG)
growth of PAEC isolated from Control subjects [1]: does not affect the growth
proliferative phenotype of HeLa cells (HeLa cells): reverses the proliferative phenotype
proliferative phenotype of PAEC isolated from IPAH patients [2]: reverses the highly proliferative phenotype

binding result [3]: binds
B1: inositol monophosphatase 1 (IMPA1), rat, endogenous in lung tissue (enzyme, UniProt P97697 1-277, looked up)
chain: MADPWQECMDYAVILARQAGEMIREALKNKMDVMIKSSPADLVTVTDQKVEKMLMSSIKEKYPYHSFIGEESVASGEKTVFTEQPTWIIDPIDGTTNFVHRFPFVAVSIGFVVNKEMEFGVVYSCVEDKMYTGRKGKGAFCNGQKLRVSQQEDITKSLLVTELGSSRKPETLRIVLSNMERLCSIPIHGIRSVGTAAVNMCLVATGGADAYYEMGIHCWDMAGAGIIVIEAGGVLLDVTGGPFDLMSRRIIAASNIALAERIAKELEIIPLQRDDES
notes: Endogenous rat protein co-immunoprecipitated with RAGE
